Measured values from patent US6723897B2, “Methods for controlling gibberellin levels” (Monsanto Technology, LLC, priority 1998, dated 2004).

How the values were obtained:
[1] = tested on: GA-deficient transgenic soybean line 719 (R5); assay: Hilum treatment of soybean seeds, seedling growth and development, GA-deficient soybean; assay type: in vivo, Glycine max; parameters: key to Emergence timing / Hypocotyl length (6 DAP) / 1st internode length (12 DAP) / 3rd internode length (20 DAP) / 2nd internode length (12 DAP): pos: emergence faster/stem segment longer than controls; 0: emergence timing/stem segment length similar to controls; neg: emergence slower/stem segment shorter than controls; conditions: for Lowest rate where biological activity is observed, 1st internode length (10 DAP) / Lowest rate where biological activity is observed, emergence timing / Lowest rate where biological activity is observed, hypocotyl length (5 DAP) / 1st internode length (12 DAP) / Emergence timing / Hypocotyl length (6 DAP): L719, hilum treatment; for Lowest rate where biological activity is observed, 1st internode length (10 DAP) / Lowest rate where biological activity is observed, emergence timing / Lowest rate where biological activity is observed, hypocotyl length (5 DAP): rate response; for 1st internode length (12 DAP) / Emergence timing / Hypocotyl length (6 DAP): single rate per compound 8.3-16.5 μg/seed; for activity on line 719 in terms of emergence timing and hypocotyl length: single rate, hilum, concentration that does not affect normal plant tissue
Description: (§1) In the previous experiments, the effect of various GA compounds on transgenic, GA-deficient and wild-type soybean is evaluated by treating seeds with these compounds via imbibition. Several of these compounds are not completely soluble in water, which limited the interpretation of their utility in rescuing GA-deficient dwarf plants. The purpose of this experiment is to reevaluate selected, previously tested compounds, and additional compounds, by introducing them to the seed via the hilum. As shown by the results presented below, direct application of small quantities of GA compounds dissolved in an organic solvent to the hilum is an effective method of treating soybean seeds. As in the previously described experiments, comparison is made between activity on GA-deficient soybean seedlings and normal (wild-type) seedlings. […] soybean seeds are supplied by Asgrow Seed Company (Des Moines, Iowa). Seed of GA-deficient transgenic soybean line 719 is created by transformation of […] soybean with pMON29801 (FMV/antisense CPScc). Fifth generation seed (R5) is used for these experiments. […] When multiple droplets are applied, each 1 μl droplet is allowed to dry before subsequent droplets are added. Ethanol minus compound is used a treatment control. […] (29° C.) and 75° F. (24° C.), respectively. Emergence timing is measured by counting the number of emerged seedlings at different times after planting. Emergence is defined as the presence of cotyledons raised to soil level or above. […] To assess the ability of a seed treatment to deliver biological activity beyond the first internode, measurements are taken on selected treatments after prolonged growth and development.

wild-type A3237 soybean = assay: Hilum treatment of soybean seeds, seedling growth and development, wild-type soybean; assay type: in vivo, Glycine max; parameters: key to Emergence timing / Hypocotyl length (6 DAP) / 1st internode length (12 DAP) / 3rd internode length (20 DAP): pos: emergence faster/stem segment longer than controls; 0: emergence timing/stem segment length similar to controls; neg: emergence slower/stem segment shorter than controls; conditions: for Lowest rate where biological activity is observed, 1st internode length (10 DAP) / Lowest rate where biological activity is observed, emergence timing / Lowest rate where biological activity is observed, hypocotyl length (5 DAP): rate response; for 1st internode length (12 DAP) / Emergence timing / Hypocotyl length (6 DAP): single rate per compound 8.3-16.5 μg/seed
Description: as §1

[2] = tested on: constitutively GA-deficient transgenic dwarf soybeans (line 719); assay: Summary of first two greenhouse experiments, rescue of GA-deficient soybeans; assay type: in vivo, Glycine max; parameters: key: +: transgenic soybeans are rescued; 0: transgenic soybeans are not rescued; conditions: 0.25 mg/ml solution (ethanol-water)
Description: (§2) Compounds are first prepared as 25 mg/ml solutions in ethanol as described above, and then diluted into 40 ml of water to prepare the final 0.25 mg/ml treatment solutions. Visual observations on solubilities (milky, clear, etc.) of the treatment solutions are noted. The treatment solutions are divided into two 20 ml portions, each in 50 ml plastic centrifuge tubes. In addition to treating seeds with solutions containing the test compounds, untreated seeds and seeds imbibed in ethanol-water solution (300 μl ethanol in 30 mls of water) are also included in this experiment as controls. In the latter case, 20 seeds are imbibed in 30 mls of solution for six hours.
(§3) Two soybean varieties are selected for testing: constitutively GA-deficient transgenic dwarf soybean line 719 (plasmid pMON29801, constitutive FMV promoter/asCPScc; which is a mixture of 719−2 and 719+17), and A3237, the wild-type parent material. […] After imbibition, seeds are removed from the test tubes, placed on wax paper to dry, and planted in bread pans containing farm soil amended with fertilizer at 20 seeds/pan. Seeds are covered with 0.5″ of vermiculite. Pans are transferred to the greenhouse, which had day/night temperatures of 86/68° F. (30/20° C.), and subirrigated. Illumination is at a light intensity of 300-400 μmolm^−2s^−1 photosynthetic photon flux; 16 hours light/8 hours dark. Subsequent waterings are also through sub-irrigation until the test is terminated three weeks later. Observations included the number of dwarf, intermediate, and tall plants; plant height; uniformity of rescue; and any visual effects.
(§4) All compounds are tested at final concentrations of 0.25, 0.025, and 0.0025 mg/ml except for GA9, which is tested at 0.125, 0.0125, and 0.00125 mg/ml. (The compounds are tested in Experiment I at only one concentration, i.e., 0.25 mg/ml). Test tubes contained […] of ethanol solution per tube. Final volumes are made up to 30 ml with deionized water. After shaking, the treatment solutions (15 ml each) are transferred to each of two 50 ml test tubes. Treatments 1 to 27 are performed on wild-type line A3237; treatments 28 to 54 are performed on constitutively GA-deficient transgenic dwarf soybean line 719 (a mixture of 719−2 and 719+17). Twenty seeds are used in each treatment. Dry seed, ethanol/water-imbibed seed (1% ethanol in water, v/v), and water-imbibed seeds are included as controls. Seeds are imbibed for 6 hours in the test solutions, then planted in bread pans containing Metromix 350 (The Scotts Company, Marysville, Ohio), and covered with 0.5″ Metro-mix. Covered pans are transferred to the greenhouse and subirrigated. Illumination is at a light intensity of 300-400 μmolm^−2s^−1 photosynthetic photon flux; 16 hours light/8 hours dark. Subsequent waterings are also through sub-irrigation until the test is terminated three weeks later. Observations included the number of dwarf, intermediate, and tall plants; plant height; uniformity of rescue; and any visual effects. Digital photographs are also taken.

[3] = tested on: wild-type soybean line A3237; assay: Experiment I greenhouse test, seed imbibition, wild-type soybean; conditions: 0.25 mg/ml; seeds imbibed 5 hours
Description: as §2, with “In the latter case, 20 seeds are imbibed in 30 mls of solution for six hours.” left out
After imbibition, seeds are removed from the test tubes, placed on wax paper to dry, and planted in bread pans containing farm soil amended with fertilizer at 20 seeds/pan. Seeds are covered with 0.5″ of vermiculite. Pans are transferred to the greenhouse, which had day/night temperatures of 86/68° F. (30/20° C.), and subirrigated. Illumination is at a light intensity of 300-400 μmolm^−2s^−1 photosynthetic photon flux; 16 hours light/8 hours dark. Subsequent waterings are also through sub-irrigation until the test is terminated three weeks later. Observations included the number of dwarf, intermediate, and tall plants; plant height; uniformity of rescue; and any visual effects.

[4] = Particulate material present in solutions after mixing; assay type: physicochemical; conditions: for Particulate material present, 100X Diln w/water: 0.25 mg/ml compound in water; for solubility in water during imbibition: 0.25 mg/ml treatment solutions; for Particulate material present, Initial Mixing: 25 mg/ml in absolute ethanol
Description: Each of the compounds noted above is weighed to the nearest 0.1 mg in a pre-tarred 1.5-ml polypropylene vial with a screw-top lid. Absolute ethanol is added to the weighed powder to prepare a 25 mg/ml solution. Solutions are thoroughly mixed using a vortex mixer. A stainless steel spatula is used to crush any particulate material remaining after extensive mixing. Vials are left overnight at room temperature, and then remixed to form the concentrated ethanol stock solutions. The presence of undissolved material is noted throughout this procedure.

[5] = tested on: constitutively GA-deficient transgenic dwarf soybean line 719; assay: Experiment I greenhouse test, seed imbibition, GA-deficient soybean; assay type: in vivo, Glycine max; parameters: Observation on Transgenic Line 719: key: −1: treated plants are shorter as compared to untreated plants; 0: treated plants had the same stature as untreated plants; 1: treated plants are slightly elongated as compared to untreated plants; 2: treated plants are moderately elongated as compared to untreated plants; 3: treated plants are highly elongated as compared to untreated plants; 4: treated plants are extremely elongated as compared to untreated plants; conditions: 0.25 mg/ml; for effect in both the constitutive transgenic dwarf and wild-type soybean lines: imbibition, lines 719 and A3237; for Observation on Transgenic Line 719: seeds imbibed 5 hours
From the text: Seeds are covered with 0.5″ of vermiculite.

[6] = tested on: GA-deficient (Line 719, R5) soybeans; assay: Hilum treatment with GA15, GA19, GA24, GA44, hypocotyl length, GA-deficient soybean; assay type: in vivo, Glycine max; conditions: 10 μg/seed, 5 DAP
From the text: Transgenic seeds are fifth generation (R5) line 719 seeds.

A3237 soybean = assay: Stature of soybean plants with ancymidol soil drench; assay type: in vivo, Glycine max
Description: R1 lines are also evaluated for stature reduction, a key indicator of GA-deficiency in soybean. R1 seeds are grown as described above. Plant height is routinely measured at approximately one week after planting. Four lines (696, 719, 720 and 724) are identified that had overall stature reduction relative to the control (A3237) line and the control line plus ancymidol (10 mg/L), an inhibitor of GA (Table 3). As these are segregating from R1 seeds, the distribution stature of the plants is evaluated. Three lines (719, 720 and 724) have a population of strong dwarf soybean plants (<25% the height of the average control plant). The segregation ratio of R1 pMON29801 (FMV/asCPScc) (FIG. 7) soybean plants is checked by phenotype (stature) and for the expression of CP4 5-enolpyruvylshikimate-3-phosphate synthase by ELISA (Rogan et al., J. Food Control, in Press (1998)). The results for both of these analyses are fairly consistent (Table 4): Line 696 segregated at about 1:3, line 719 at about 1:2, line 720 at about 2:1 and line 724 at about 3:1. Thus, only line 724 is what could be considered normal Mendelian segregation.
In soybean, GAs increase through mid-seed development, and then decline as the seed matures (Birnberg et al. (1986) Plant Physiol. 82:241-246). This trend is similar to that observed in other legumes. […] This is supported by the following observations (data not shown). […] This is well after germination and axis elongation have begun. Both of these observations support the hypothesis that soybean seed germination and early axis elongation are not dependent on de novo gibberellin biosynthesis.

[7] = tested on: wild-type soybeans (line A3237); assay: Summary of first two greenhouse experiments, elongation of wild-type soybeans; conditions: 0.25 mg/ml solution (ethanol-water)
Description: as §2, §3, §4

Observation on Wild-Type Line A3237 [3]	Particulate material present, 100X Diln w/water [4]	solubility in water during imbibition [4]	SMILES	Lowest rate where biological activity is observed, 1st internode length (10 DAP) [1]	Lowest rate where biological activity is observed, emergence timing [1]	Lowest rate where biological activity is observed, hypocotyl length (5 DAP) [1]	1st internode length (12 DAP) [1]	Emergence timing [1]	Hypocotyl length (6 DAP) [1]	activity on line 719 in terms of emergence timing and hypocotyl length [1]	Lowest rate where biological activity is observed, 1st internode length (10 DAP) (wild-type A3237 soybean)	Lowest rate where biological activity is observed, emergence timing (wild-type A3237 soybean)	Lowest rate where biological activity is observed, hypocotyl length (5 DAP) (wild-type A3237 soybean)	1st internode length (12 DAP) (wild-type A3237 soybean)	Emergence timing (wild-type A3237 soybean)	Hypocotyl length (6 DAP) (wild-type A3237 soybean)	Rescue of GA-deficient soybeans [2]	Particulate material present, Initial Mixing [4]	effect in both the constitutive transgenic dwarf and wild-type soybean lines [5]	Observation on Transgenic Line 719 [5]	also measured
0	YES	less soluble in water during imbibition	C=C1C[C@@]23CC[C@H]4[C@@](C)(CCC[C@@]4(C)C(=O)O)[C@@H]2CC[C@]1(O)C3 (single isomer, unassigned; ent-7) [steviol]	>100 μg/seed	10 μg/seed	1 μg/seed	0	pos	pos	biologically active	>100 μg/seed	>100 μg/seed	>100 μg/seed	0	0	0	0	YES	no substantial activity	0	
0	YES	less soluble in water during imbibition	C=C1C[C@]23C[C@H]1CC[C@H]2[C@]1(C)CCC[C@@](C)(C(=O)O)[C@H]1[C@@H]3C=O [GA12-aldehyde]	>100 μg/seed	1 μg/seed	1 μg/seed	0	pos	pos	biologically active	>100 μg/seed	>100 μg/seed	>100 μg/seed	0	0	0	0		no substantial activity	0	
			C=C1C[C@]23C[C@@]1(O)CC[C@H]2[C@]1(C=O)CCC[C@@](C)(C(=O)O)[C@H]1[C@@H]3C(=O)O [GA19]																		hypocotyl height of GA-deficient (Line 719) soybeans (FIG. 41) [6]: restored normal or greater hypocotyl height
			COc1ccc(C(O)(c2cncnc2)C2CC2)cc1 (stereo not shown) [ancymidol]																		Height (% of control) (A3237 soybean; 7 DAP, ancymidol 10 mg/L): 14 % of control; Frequency of heights relative to A3237 control (%), 0-25% (A3237 soybean; ancymidol soil drench 10 mg/L): 100%; Frequency of heights relative to A3237 control (%), 25-50% (A3237 soybean; ancymidol soil drench 10 mg/L): 0%; Frequency of heights relative to A3237 control (%), 50-75% (A3237 soybean; ancymidol soil drench 10 mg/L): 0%; Frequency of heights relative to A3237 control (%), 75-100% (A3237 soybean; ancymidol soil drench 10 mg/L): 0%; soybean axis elongation (A3237 soybean; first one to two days of growth, data not shown): does not reduce soybean axis elongation

SMILES	Observation on Wild-Type Line A3237 [3]	Particulate material present, 100X Diln w/water [4]	solubility in water during imbibition [4]	Lowest rate where biological activity is observed, 1st internode length (10 DAP) [1]	Lowest rate where biological activity is observed, emergence timing [1]	Lowest rate where biological activity is observed, hypocotyl length (5 DAP) [1]	1st internode length (12 DAP) [1]	Emergence timing [1]	Hypocotyl length (6 DAP) [1]	activity on line 719 in terms of emergence timing and hypocotyl length [1]	Lowest rate where biological activity is observed, 1st internode length (10 DAP) (wild-type A3237 soybean)	Lowest rate where biological activity is observed, emergence timing (wild-type A3237 soybean)	Lowest rate where biological activity is observed, hypocotyl length (5 DAP) (wild-type A3237 soybean)	1st internode length (12 DAP) (wild-type A3237 soybean)	Emergence timing (wild-type A3237 soybean)	Hypocotyl length (6 DAP) (wild-type A3237 soybean)	Rescue of GA-deficient soybeans [2]	Particulate material present, Initial Mixing [4]	effect in both the constitutive transgenic dwarf and wild-type soybean lines [5]	Observation on Transgenic Line 719 [5]	also measured
C=C1C[C@@]23CC[C@@H]4C(C)(C)CCC[C@@]4(C)[C@@H]2CC[C@@H]1C3 [kaurene]	0	YES	less soluble in water during imbibition				0	pos	0					0	0	0	0	YES	no substantial activity	0	Particulate material present, O/N Incubation ([4]; 25 mg/ml in ethanol, overnight at room temperature, remixed): YES; Elongation of wild-type soybeans [7]: 0
